PubChem BioAssay (NCI)
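In this assay, cells in 96-well plates receive the compound at five concentrations for 48 hours. Endpoints are linearly interpolated between the surrounding concentrations. GI50 is the concentration that inhibits growth by half. Definition used: TGI = concentration required for complete inhibition of growth.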

Columns and labels:
Experiment in all cases: NCI-60 cell line screen, 48 h
786-0 renal = tested on: 786-0 renal
A498 renal = tested on: A498 renal
A549 NSCLC = tested on: A549 NSCLC
ACHN renal = tested on: ACHN renal
BT-549 breast = tested on: BT-549 breast
CAKI-1 renal = tested on: CAKI-1 renal
CCRF-CEM leukemia = tested on: CCRF-CEM leukemia
COLO 205 colon = tested on: COLO 205 colon
DU-145 prostate = tested on: DU-145 prostate
EKVX NSCLC = tested on: EKVX NSCLC
HCC-2998 colon = tested on: HCC-2998 colon
HCT-116 colon = tested on: HCT-116 colon
HCT-15 colon = tested on: HCT-15 colon
HL-60(TB) leukemia = tested on: HL-60(TB) leukemia
HOP-62 NSCLC = tested on: HOP-62 NSCLC
HOP-92 NSCLC = tested on: HOP-92 NSCLC
HS 578T breast = tested on: HS 578T breast
HT29 colon = tested on: HT29 colon
IGROV1 ovarian = tested on: IGROV1 ovarian
K-562 leukemia = tested on: K-562 leukemia
KM12 colon = tested on: KM12 colon
LOX IMVI melanoma = tested on: LOX IMVI melanoma
M14 melanoma = tested on: M14 melanoma
MALME-3M melanoma = tested on: MALME-3M melanoma
MCF7 breast = tested on: MCF7 breast
MDA-MB-231 breast = tested on: MDA-MB-231 breast
MDA-MB-435 = tested on: MDA-MB-435
MDA-N = tested on: MDA-N
MOLT-4 leukemia = tested on: MOLT-4 leukemia
NCI-H226 lung = tested on: NCI-H226 lung
NCI-H23 lung = tested on: NCI-H23 lung
NCI-H460 lung = tested on: NCI-H460 lung
NCI-H522 lung = tested on: NCI-H522 lung
NCI/ADR-RES ovarian = tested on: NCI/ADR-RES ovarian
OVCAR-3 ovarian = tested on: OVCAR-3 ovarian
OVCAR-4 ovarian = tested on: OVCAR-4 ovarian
OVCAR-5 ovarian = tested on: OVCAR-5 ovarian
OVCAR-8 ovarian = tested on: OVCAR-8 ovarian
PC-3 prostate = tested on: PC-3 prostate
RPMI-8226 leukemia = tested on: RPMI-8226 leukemia
RXF 393 renal = tested on: RXF 393 renal
SF-268 CNS = tested on: SF-268 CNS
SF-295 CNS = tested on: SF-295 CNS
SF-539 CNS = tested on: SF-539 CNS
SK-MEL-2 melanoma = tested on: SK-MEL-2 melanoma
SK-MEL-28 melanoma = tested on: SK-MEL-28 melanoma
SK-MEL-5 melanoma = tested on: SK-MEL-5 melanoma
SK-OV-3 ovarian = tested on: SK-OV-3 ovarian
SN12C renal = tested on: SN12C renal
SNB-19 CNS = tested on: SNB-19 CNS
SNB-75 CNS = tested on: SNB-75 CNS
SR leukemia = tested on: SR leukemia
SW-620 colon = tested on: SW-620 colon
T-47D breast = tested on: T-47D breast
TK-10 renal = tested on: TK-10 renal
U251 CNS = tested on: U251 CNS
UACC-257 melanoma = tested on: UACC-257 melanoma
UACC-62 melanoma = tested on: UACC-62 melanoma
UO-31 renal = tested on: UO-31 renal

`CCOC(=O)/C=C(\C(=O)OCC)n1ccc(=O)n(CC(=O)OCC)c1=O` showed a TGI (786-0 renal) of 4.1 µM, a TGI (A498 renal) of 31.7 µM and a TGI (A549 NSCLC) of 32.3 µM. It also gave a TGI (ACHN renal) of 3.29 µM, a TGI (BT-549 breast) of 29.1 µM and a TGI (CAKI-1 renal) of 1.68 µM. It also gave a TGI (CCRF-CEM leukemia) of 3.29 µM, a TGI (COLO 205 colon) of 3.16 µM and a TGI (DU-145 prostate) of 31.1 µM. It also gave a TGI (EKVX NSCLC) of 35.5 µM, a TGI (HCC-2998 colon) of 32.2 µM and a TGI (HCT-116 colon) of 3.44 µM. For the same molecule, the TGI (HCT-15 colon) was 4.4 µM, the TGI (HL-60(TB) leukemia) was 1.22 µM and the TGI (HOP-62 NSCLC) was 38.7 µM. The TGI (HOP-92 NSCLC) was 3.06 µM, the TGI (HS 578T breast) was 53.7 µM and the TGI (HT29 colon) was 16.2 µM. The TGI (IGROV1 ovarian) was 19.3 µM, the TGI (K-562 leukemia) was 4 µM and the TGI (KM12 colon) was 30.8 µM. It also gave a TGI (LOX IMVI melanoma) of 5.23 µM, a TGI (M14 melanoma) of 5.48 µM and a TGI (MALME-3M melanoma) of 5.41 µM. For the same molecule, the TGI (MCF7 breast) was 9.73 µM, the TGI (MDA-MB-231 breast) was 17.2 µM and the TGI (MDA-MB-435) was 16.4 µM. The TGI (MDA-N) was 17 µM, the TGI (MOLT-4 leukemia) was 4.62 µM and the TGI (NCI-H226 lung) was 12.8 µM. It also gave a TGI (NCI-H23 lung) of 28.1 µM, a TGI (NCI-H460 lung) of 32.2 µM and a TGI (NCI-H522 lung) of 3.25 µM. The TGI (NCI/ADR-RES ovarian) was 60.8 µM, the TGI (OVCAR-3 ovarian) was 12.5 µM and the TGI (OVCAR-4 ovarian) was greater than 31.2 µM. It also gave a TGI (OVCAR-5 ovarian) of 10.1 µM, a TGI (OVCAR-8 ovarian) of 14.3 µM and a TGI (PC-3 prostate) of 11.2 µM. It also gave a GI50 (RPMI-8226 leukemia) of 2.81 µM, a TGI (RPMI-8226 leukemia) of 7.67 µM and a TGI (RXF 393 renal) of 2.97 µM. The TGI (SF-268 CNS) was 41.1 µM, the TGI (SF-295 CNS) was 34.6 µM and the TGI (SF-539 CNS) was 32.3 µM. The TGI (SK-MEL-2 melanoma) was 29.1 µM, the TGI (SK-MEL-28 melanoma) was 15.7 µM and the TGI (SK-MEL-5 melanoma) was 25.8 µM. For the same molecule, the TGI (SK-OV-3 ovarian) was 32.4 µM, the TGI (SN12C renal) was 9.38 µM and the TGI (SNB-19 CNS) was 36.7 µM. For the same molecule, the TGI (SNB-75 CNS) was 24.5 µM, the TGI (SR leukemia) was 5.27 µM and the GI50 (SW-620 colon) was 1.42 µM. It also gave a TGI (SW-620 colon) of 2.72 µM, a TGI (T-47D breast) of 7.39 µM and a TGI (TK-10 renal) of 6.04 µM. It also gave a TGI (U251 CNS) of 19.5 µM, a TGI (UACC-257 melanoma) of 24.2 µM and a TGI (UACC-62 melanoma) of 19.2 µM. The TGI (UO-31 renal) was 17.5 µM.

`CCCCOCCOC1=CC(=O)c2c(O)ccc(O)c2C1=O` was tested, and the TGI (786-0 renal) was 3.03 µM, the TGI (A498 renal) was 3 µM and the TGI (A549 NSCLC) was 3.41 µM. The TGI (ACHN renal) was 3.1 µM, the TGI (BT-549 breast) was 2.98 µM and the TGI (CAKI-1 renal) was 3.23 µM. It also gave a TGI (CCRF-CEM leukemia) of 4.04 µM, a TGI (COLO 205 colon) of 2.36 µM and a TGI (DU-145 prostate) of 3.17 µM. It also gave a TGI (EKVX NSCLC) of 3.08 µM, a TGI (HCC-2998 colon) of 3.3 µM and a TGI (HCT-116 colon) of 2.85 µM. It also gave a TGI (HL-60(TB) leukemia) of 2.99 µM, a TGI (HOP-62 NSCLC) of 1.8 µM and a TGI (HOP-92 NSCLC) of 4.44 µM. It also gave a TGI (HS 578T breast) of 4.99 µM, a TGI (HT29 colon) of 3.12 µM and a TGI (IGROV1 ovarian) of 3.35 µM. The TGI (K-562 leukemia) was greater than 10 µM, the TGI (KM12 colon) was 3.14 µM and the TGI (LOX IMVI melanoma) was 3.15 µM. For the same molecule, the TGI (M14 melanoma) was 2.18 µM, the TGI (MALME-3M melanoma) was 0.738 µM and the TGI (MCF7 breast) was 3.15 µM. For the same molecule, the TGI (MDA-MB-231 breast) was 3.85 µM, the TGI (MDA-MB-435) was 0.334 µM and the TGI (MDA-N) was 0.341 µM. For the same molecule, the TGI (MOLT-4 leukemia) was 9.38 µM, the TGI (NCI-H226 lung) was 3.14 µM and the TGI (NCI-H23 lung) was 3.17 µM. The TGI (NCI-H460 lung) was 3.43 µM, the TGI (NCI-H522 lung) was 2.93 µM and the TGI (NCI/ADR-RES ovarian) was 4.74 µM. The TGI (OVCAR-3 ovarian) was 3.04 µM, the TGI (OVCAR-4 ovarian) was 3.33 µM and the TGI (PC-3 prostate) was 6.69 µM. The TGI (RPMI-8226 leukemia) was greater than 10 µM, the TGI (RXF 393 renal) was 3.02 µM and the TGI (SF-268 CNS) was 3.65 µM. For the same molecule, the TGI (SF-295 CNS) was 3.02 µM, the TGI (SF-539 CNS) was 2.94 µM and the TGI (SK-MEL-2 melanoma) was 3.26 µM. For the same molecule, the TGI (SK-MEL-28 melanoma) was 3 µM, the TGI (SK-MEL-5 melanoma) was 0.422 µM and the TGI (SK-OV-3 ovarian) was greater than 10 µM. It also gave a TGI (SN12C renal) of 3.03 µM, a TGI (SNB-19 CNS) of 3.12 µM and a TGI (SNB-75 CNS) of 2.91 µM. It also gave a TGI (SR leukemia) of 5.11 µM, a TGI (SW-620 colon) of 2.84 µM and a TGI (T-47D breast) of 4.03 µM. It also gave a TGI (TK-10 renal) of 4.8 µM, a TGI (U251 CNS) of 3.07 µM and a TGI (UACC-257 melanoma) of 2.23 µM. For the same molecule, the TGI (UACC-62 melanoma) was 2.98 µM and the TGI (UO-31 renal) was 3.01 µM.

With `COc1cc(/C=C2\C(=O)N(Cc3ccccc3)C(c3ccccc3)S2(=O)=O)cc(OC)c1OC` (configuration not stated) the TGI (786-0 renal) was greater than 100 µM, the TGI (A498 renal) was greater than 100 µM and the TGI (A549 NSCLC) was greater than 100 µM. The TGI (ACHN renal) was greater than 100 µM, the TGI (BT-549 breast) was greater than 100 µM and the TGI (CAKI-1 renal) was greater than 100 µM. For the same molecule, the TGI (CCRF-CEM leukemia) was greater than 100 µM, the TGI (COLO 205 colon) was 94 µM and the TGI (DU-145 prostate) was greater than 100 µM. For the same molecule, the TGI (EKVX NSCLC) was greater than 100 µM, the TGI (HCC-2998 colon) was greater than 100 µM and the TGI (HCT-116 colon) was greater than 100 µM. The TGI (HCT-15 colon) was greater than 100 µM, the TGI (HL-60(TB) leukemia) was 44.9 µM and the TGI (HOP-62 NSCLC) was greater than 100 µM. The TGI (HOP-92 NSCLC) was greater than 100 µM, the TGI (HS 578T breast) was greater than 100 µM and the TGI (HT29 colon) was greater than 100 µM. For the same molecule, the TGI (K-562 leukemia) was greater than 100 µM, the TGI (KM12 colon) was greater than 100 µM and the TGI (LOX IMVI melanoma) was greater than 100 µM. It also gave a TGI (M14 melanoma) greater than 100 µM, a TGI (MALME-3M melanoma) greater than 100 µM and a TGI (MCF7 breast) greater than 100 µM. It also gave a TGI (MDA-MB-231 breast) greater than 100 µM, a TGI (MDA-MB-435) greater than 100 µM and a TGI (MDA-N) greater than 100 µM. The TGI (MOLT-4 leukemia) was 14.7 µM, the TGI (NCI-H226 lung) was greater than 100 µM and the TGI (NCI-H23 lung) was greater than 100 µM. For the same molecule, the TGI (NCI-H460 lung) was greater than 100 µM, the TGI (NCI-H522 lung) was greater than 100 µM and the TGI (NCI/ADR-RES ovarian) was greater than 100 µM. For the same molecule, the TGI (OVCAR-3 ovarian) was greater than 100 µM, the TGI (OVCAR-4 ovarian) was greater than 100 µM and the TGI (OVCAR-5 ovarian) was greater than 100 µM. For the same molecule, the TGI (OVCAR-8 ovarian) was greater than 100 µM, the TGI (PC-3 prostate) was greater than 100 µM and the TGI (RXF 393 renal) was greater than 100 µM. The TGI (SF-268 CNS) was greater than 100 µM, the TGI (SF-295 CNS) was greater than 100 µM and the TGI (SK-MEL-2 melanoma) was greater than 100 µM. For the same molecule, the TGI (SK-MEL-28 melanoma) was greater than 100 µM, the TGI (SK-MEL-5 melanoma) was 51.8 µM and the TGI (SK-OV-3 ovarian) was greater than 100 µM. For the same molecule, the TGI (SN12C renal) was greater than 100 µM, the TGI (SNB-19 CNS) was greater than 100 µM and the TGI (SR leukemia) was 65.5 µM. For the same molecule, the TGI (SW-620 colon) was greater than 100 µM, the TGI (T-47D breast) was greater than 100 µM and the TGI (TK-10 renal) was greater than 100 µM. The TGI (U251 CNS) was greater than 100 µM, the TGI (UACC-257 melanoma) was greater than 100 µM and the TGI (UACC-62 melanoma) was greater than 100 µM. It also gave a TGI (UO-31 renal) greater than 100 µM.
